# Key:
# GII.4 Saga P dimer = GII.4 Saga P dimer (Norovirus GII.4 (human norovirus), UniProt B5BTR7); assay: Native MS, specific glycan binding to P dimer after reference protein correction; parameters: species or system human norovirus (hNoV)
# Experimental: (§1) Prior to MS analysis, purified P dimers were buffer exchanged to 150 mM ammonium acetate (Sigma-Aldrich, reagent grade ≥98%) at pH 7 via centrifugal filter units at 12,000× g at 4 °C (Vivaspin 500, MWCO 10000, Sartorius). Glycans for native MS analysis were mixed with 1 µM (per monomer) purified GII.4 Saga P dimer and 3 µM of the reference proteins at indicated concentrations. Native mass spectra were measured at room temperature in positive ion mode on a high mass modified LCT Premier mass spectrometer (Waters/Micromass, UK and MS Vision, the Netherlands) with a nano-ESI source. In house-made gold-coated electrospray capillaries were used for direct-sample infusion without any accessory chromatographic separation. The voltages and pressures were optimized for non-covalent protein complexes. The gas pressure used in the source hexapole was set between 6.5 and 6.8 × 10^−2 mbar argon optimized for minimal complex dissociation and the backing pressure of the source roughing pump was set between 7.0 and 8.5 mbar. Spectra were recorded with applied voltages for the capillary and cone of 1.20 kV and 240 V, respectively. Note that charge state distributions for P dimers were sometimes slightly shifted as was the degree of glycan clustering per charge state. These changes were highly variable and not quantifiable.
# (§2) For calibration of the raw data, a 25 mg/mL cesium iodide spectrum from the same day was used. MassLynx V4.1 (Waters, Manchester, UK) was used to assign peak series to protein species and to determine the mass after minimal smoothing. Furthermore, OriginPro 2016 SR2 (OriginLab, Northampton, MA, USA) was used for spectral deconvolution and curve fitting. Correction for nonspecific protein-ligand clustering was performed as described. Corrected peak areas were averaged and normalized to the free-protein signal. Data were based on at least three independent measurements. Python code Panda and Numpy package were used to calculate the specific binding of P dimers according to the glycan clustering ratio obtained from the selected reference protein candidates. Seaborn and matplotlib.pyplot package were imported into a python script to plot the results. The module of sklearn.linear model was applied for linear regression. The matplotlib and heatmap package were used to plot the heatmap.
# Data from native ESI MS measurements were translated into dissociation constants (KD values). The detailed calculations were based on the equations listed below. A protein (P) and a glycan ligand (L) form a complex through non-covalent interactions leading to a reversible association described by (Equation (1)):(1) P+L⇌PL when equilibrium is reached, the KD can be calculated directly from the concentrations via the law of mass action (Equation (2)):(2) KD=[Pfree][Lfree]/[PL]
# (§3) Theoretically, the KD is calculated by measuring the concentration of the three components (Pfree, Lfree, PL) in solution. Usually, these values are only indirectly accessible because they require ligand titration up to binding saturation. However, native MS allows for the directly measurement of Pfree and PL, from which Lfree can be calculated using the input concentrations. In the present work, the non-covalent interaction was measured in the gas phase assuming identical ESI and detection efficiency for free and glycan-associated proteins, both for the analyte and the reference protein. […] For P dimers, the equations reflect glycan binding to the individual monomers assuming that binding sites on each monomer are equal and independent.
# Using R described in Equation (3), the KD calculation can be re-written into Equation (4) with the known initial concentration of glycan ligand [L0] and protein [P0], adapted from Sun et al.:(3) R=PLequil∕Pequil=∑nA(PL^n+)∕n∕∑nA(P^n+)∕n (4) KD =L0−RP0/1+R/R […]
# [1] = target: T1, human apo-transferrin (apo-TFF) (Homo sapiens, UniProt P02787); assay: Native MS glycan clustering to reference protein apo-TFF; format: binding; details: on apo-TFF
# T1 construct: purchased Sigma-Aldrich (Merck, Germany)
# Experimental: as §1, §2, §3
# Using R described in Equation (3), the KD calculation can be re-written into Equation (4) with the known initial concentration of glycan ligand [L0] and protein [P0], adapted from Sun et al.:(3) R=PLequil∕Pequil=∑nA(PL^n+)∕n∕∑nA(P^n+)∕n (4) KD =L0−RP0/1+R/R
# For the carbohydrate-binding experiments, it was essential to keep the initial protein concentrations and pH value constant during the analysis of the protein-carbohydrate solutions. While acidification occurs in any ESI droplet, the remaining solution in the capillary changes pH over time. Therefore, accumulated spectra were obtained within 10 min after the voltages were applied to minimize the influence of pH changes during the measurements. […]
# T1 sequence (P02787 20-698): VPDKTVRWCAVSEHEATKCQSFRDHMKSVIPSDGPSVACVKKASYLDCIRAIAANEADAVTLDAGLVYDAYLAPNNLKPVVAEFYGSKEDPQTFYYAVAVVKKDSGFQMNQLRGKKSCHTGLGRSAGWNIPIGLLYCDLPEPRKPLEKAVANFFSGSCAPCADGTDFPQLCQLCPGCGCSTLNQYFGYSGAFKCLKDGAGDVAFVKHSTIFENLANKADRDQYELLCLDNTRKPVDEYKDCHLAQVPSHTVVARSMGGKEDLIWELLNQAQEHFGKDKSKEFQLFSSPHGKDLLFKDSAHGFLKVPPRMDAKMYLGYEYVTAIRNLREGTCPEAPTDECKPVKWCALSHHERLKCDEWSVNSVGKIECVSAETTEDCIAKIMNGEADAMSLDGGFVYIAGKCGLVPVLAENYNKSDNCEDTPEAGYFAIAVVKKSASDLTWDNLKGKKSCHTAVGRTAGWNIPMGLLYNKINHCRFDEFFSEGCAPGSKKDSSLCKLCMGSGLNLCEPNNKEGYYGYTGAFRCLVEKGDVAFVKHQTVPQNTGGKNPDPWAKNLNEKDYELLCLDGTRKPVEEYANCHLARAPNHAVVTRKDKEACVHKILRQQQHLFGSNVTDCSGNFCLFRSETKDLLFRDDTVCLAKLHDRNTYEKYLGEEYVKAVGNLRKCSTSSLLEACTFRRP
smiles,measurement,setting,value
"CC(=O)N[C@H]1[C@H](O[C@H]2[C@@H](O)[C@@H](CO)O[C@H](O[C@@H]3[C@H](O)[C@@H](O)[C@H](O[C@H]4[C@H](O)[C@@H](O)C(O)O[C@@H]4CO)O[C@@H]3CO)[C@@H]2O)O[C@H](CO)[C@H](O)[C@@H]1O (stereo partly drawn) [Gb4, GalNAc β1-3 Galα1-4Galβ1-4Glc]",specific binding after ADH based protein clustering correction,"GII.4 Saga P dimer; Gb4: any listed glycan concentration, HBGA B: 500 µM",no specific binding
same,Bound number of carbohydrates on Saga P dimer,"GII.4 Saga P dimer; ref. protein ADH, glycan 100 µM",0
same,Bound number of carbohydrates on Saga P dimer,"GII.4 Saga P dimer; ref. protein ADH, glycan 200 µM",0
same,Bound number of carbohydrates on Saga P dimer,"GII.4 Saga P dimer; ref. protein ADH, glycan 300 µM",0
same,Bound number of carbohydrates on Saga P dimer,"GII.4 Saga P dimer; ref. protein ADH, glycan 400 µM",0
same,Bound number of carbohydrates on Saga P dimer,"GII.4 Saga P dimer; ref. protein ADH, glycan 500 µM",0
same,Bound number of carbohydrates on Saga P dimer,"GII.4 Saga P dimer; ref. protein CA, glycan 100 µM",1
same,Bound number of carbohydrates on Saga P dimer,"GII.4 Saga P dimer; ref. protein CA, glycan 200 µM",1
same,Bound number of carbohydrates on Saga P dimer,"GII.4 Saga P dimer; ref. protein CA, glycan 300 µM",2
same,Bound number of carbohydrates on Saga P dimer,"GII.4 Saga P dimer; ref. protein CA, glycan 400 µM",2
same,Bound number of carbohydrates on Saga P dimer,"GII.4 Saga P dimer; ref. protein CA, glycan 500 µM",2
same,Bound number of carbohydrates on Saga P dimer,"GII.4 Saga P dimer; ref. protein Cyto c, glycan 100 µM",1
same,Bound number of carbohydrates on Saga P dimer,"GII.4 Saga P dimer; ref. protein Cyto c, glycan 200 µM",2
same,Bound number of carbohydrates on Saga P dimer,"GII.4 Saga P dimer; ref. protein Cyto c, glycan 300 µM",3
same,Bound number of carbohydrates on Saga P dimer,"GII.4 Saga P dimer; ref. protein Cyto c, glycan 400 µM",3
same,Bound number of carbohydrates on Saga P dimer,"GII.4 Saga P dimer; ref. protein Cyto c, glycan 500 µM",4
same,Bound number of carbohydrates on Saga P dimer,"GII.4 Saga P dimer; ref. protein GFP, glycan 100 µM",2
same,Bound number of carbohydrates on Saga P dimer,"GII.4 Saga P dimer; ref. protein GFP, glycan 200 µM",2
same,Bound number of carbohydrates on Saga P dimer,"GII.4 Saga P dimer; ref. protein GFP, glycan 300 µM",2
same,Bound number of carbohydrates on Saga P dimer,"GII.4 Saga P dimer; ref. protein GFP, glycan 400 µM",2
same,Bound number of carbohydrates on Saga P dimer,"GII.4 Saga P dimer; ref. protein GFP, glycan 500 µM",2
same,Bound number of carbohydrates on Saga P dimer,"GII.4 Saga P dimer; ref. protein LDH, glycan 100 µM",0
same,Bound number of carbohydrates on Saga P dimer,"GII.4 Saga P dimer; ref. protein LDH, glycan 200 µM",0
same,Bound number of carbohydrates on Saga P dimer,"GII.4 Saga P dimer; ref. protein LDH, glycan 300 µM",0
same,Bound number of carbohydrates on Saga P dimer,"GII.4 Saga P dimer; ref. protein LDH, glycan 400 µM",0
same,Bound number of carbohydrates on Saga P dimer,"GII.4 Saga P dimer; ref. protein LDH, glycan 500 µM",1
same,Bound number of carbohydrates on Saga P dimer,"GII.4 Saga P dimer; ref. protein Myo, glycan 100 µM",2
same,Bound number of carbohydrates on Saga P dimer,"GII.4 Saga P dimer; ref. protein Myo, glycan 200 µM",3
same,Bound number of carbohydrates on Saga P dimer,"GII.4 Saga P dimer; ref. protein Myo, glycan 300 µM",3
same,Bound number of carbohydrates on Saga P dimer,"GII.4 Saga P dimer; ref. protein Myo, glycan 400 µM",3
same,Bound number of carbohydrates on Saga P dimer,"GII.4 Saga P dimer; ref. protein Myo, glycan 500 µM",4
same,Bound number of carbohydrates on Saga P dimer,"GII.4 Saga P dimer; ref. protein Ubq, glycan 100 µM",2
same,Bound number of carbohydrates on Saga P dimer,"GII.4 Saga P dimer; ref. protein Ubq, glycan 200 µM",3
same,Bound number of carbohydrates on Saga P dimer,"GII.4 Saga P dimer; ref. protein Ubq, glycan 300 µM",4
same,Bound number of carbohydrates on Saga P dimer,"GII.4 Saga P dimer; ref. protein Ubq, glycan 400 µM",4
same,Bound number of carbohydrates on Saga P dimer,"GII.4 Saga P dimer; ref. protein Ubq, glycan 500 µM",4
same,Bound number of carbohydrates on Saga P dimer,"GII.4 Saga P dimer; ref. protein apo-TFF, glycan 100 µM",0
same,Bound number of carbohydrates on Saga P dimer,"GII.4 Saga P dimer; ref. protein apo-TFF, glycan 200 µM",0
same,Bound number of carbohydrates on Saga P dimer,"GII.4 Saga P dimer; ref. protein apo-TFF, glycan 300 µM",1
same,Bound number of carbohydrates on Saga P dimer,"GII.4 Saga P dimer; ref. protein apo-TFF, glycan 400 µM",1
same,Bound number of carbohydrates on Saga P dimer,"GII.4 Saga P dimer; ref. protein apo-TFF, glycan 500 µM",1
same,Glycan-Clustering Ratio R,[1]; 100 µM glycan,0.36±0.05
same,Glycan-Clustering Ratio R,[1]; 200 µM glycan,0.57±0.06
same,Glycan-Clustering Ratio R,[1]; 300 µM glycan,0.63±0.02
same,Glycan-Clustering Ratio R,[1]; 400 µM glycan,0.69±0.02
same,Glycan-Clustering Ratio R,[1]; 500 µM glycan,0.80 ± 0.05
